Data taken from publication PMC10408569, “Recruitment of hexahydroquinoline as anticancer scaffold targeting inhibition of wild and mutants EGFR (EGFR^WT, EGFR^T790M, and EGFR^L858R)” (Journal of Enzyme Inhibition and Medicinal Chemistry, 2023).

Columns and labels:
MOLT-4 = assay: NCI-60 anticancer screening (SRB); assay type: cell-based; conditions: Homo sapiens; MOLT-4, leukemia; one dose 10 μM; read-out: Growth Inhibition Percentage (GI %)
RPMI-8226 = assay: NCI-60 anticancer screening (SRB); assay type: cell-based; conditions: Homo sapiens; RPMI-8226, leukemia; one dose 10 μM; read-out: Growth Inhibition Percentage (GI %)
A549/ATCC = assay: NCI-60 anticancer screening (SRB); assay type: cell-based; conditions: Homo sapiens; A549/ATCC, NSC lung cancer; one dose 10 μM; read-out: Growth Inhibition Percentage (GI %)
EKVX = assay: NCI-60 anticancer screening (SRB); assay type: cell-based; conditions: Homo sapiens, NSC lung cancer, one dose 10 μM, read-out: Growth Inhibition Percentage (GI %)
HOP-62 = assay: NCI-60 anticancer screening (SRB); assay type: cell-based; conditions: Homo sapiens; HOP-62, NSC lung cancer; one dose 10 μM; read-out: Growth Inhibition Percentage (GI %)
HOP-92 = assay: NCI-60 anticancer screening (SRB); assay type: cell-based; conditions: Homo sapiens; HOP-92, NSC lung cancer; one dose 10 μM; read-out: Growth Inhibition Percentage (GI %)
NCI-H460 = assay: NCI-60 anticancer screening (SRB); assay type: cell-based; conditions: Homo sapiens; NCI-H460, NSC lung cancer; one dose 10 μM; read-out: Growth Inhibition Percentage (GI %)
NCI-H522 = assay: NCI-60 anticancer screening (SRB); assay type: cell-based; conditions: Homo sapiens; NCI-H522, NSC lung cancer; one dose 10 μM; read-out: Growth Inhibition Percentage (GI %)
HCC-2998 = assay: NCI-60 anticancer screening (SRB); assay type: cell-based; conditions: Homo sapiens; HCC-2998, colon cancer; one dose 10 μM; read-out: Growth Inhibition Percentage (GI %)
HT29 = assay: NCI-60 anticancer screening (SRB); assay type: cell-based; conditions: Homo sapiens, HT-29; HT29, colon cancer; one dose 10 μM; read-out: Growth Inhibition Percentage (GI %)
SF-295 = assay: NCI-60 anticancer screening (SRB); assay type: cell-based; conditions: Homo sapiens; SF-295, CNS cancer; one dose 10 μM; read-out: Growth Inhibition Percentage (GI %)
SF-539 = assay: NCI-60 anticancer screening (SRB); assay type: cell-based; conditions: Homo sapiens; SF-539, CNS cancer; one dose 10 μM; read-out: Growth Inhibition Percentage (GI %)
SNB-19 = assay: NCI-60 anticancer screening (SRB); assay type: cell-based; conditions: Homo sapiens; SNB-19, CNS cancer; one dose 10 μM; read-out: Growth Inhibition Percentage (GI %)
MALME-3M = assay: NCI-60 anticancer screening (SRB); assay type: cell-based; conditions: Homo sapiens, melanoma, one dose 10 μM, read-out: Growth Inhibition Percentage (GI %)
MDA-MB-435 = assay: NCI-60 anticancer screening (SRB); assay type: cell-based; conditions: Homo sapiens; MDA-MB-435, melanoma; one dose 10 μM; read-out: Growth Inhibition Percentage (GI %)
SK-MEL-28 = assay: NCI-60 anticancer screening (SRB); assay type: cell-based; conditions: Homo sapiens; SK-MEL-28, melanoma; one dose 10 μM; read-out: Growth Inhibition Percentage (GI %)
SK-MEL-5 = assay: NCI-60 anticancer screening (SRB); assay type: cell-based; conditions: Homo sapiens; SK-MEL-5, melanoma; one dose 10 μM; read-out: Growth Inhibition Percentage (GI %)
UACC-62 = assay: NCI-60 anticancer screening (SRB); assay type: cell-based; conditions: Homo sapiens; UACC-62, melanoma; one dose 10 μM; read-out: Growth Inhibition Percentage (GI %)
OVCAR-3 = assay: NCI-60 anticancer screening (SRB); assay type: cell-based; conditions: Homo sapiens; OVCAR-3, ovarian cancer; one dose 10 μM; read-out: Growth Inhibition Percentage (GI %)
OVCAR-4 = assay: NCI-60 anticancer screening (SRB); assay type: cell-based; conditions: Homo sapiens; OVCAR-4, ovarian cancer; one dose 10 μM; read-out: Growth Inhibition Percentage (GI %)
OVCAR-8 = assay: NCI-60 anticancer screening (SRB); assay type: cell-based; conditions: Homo sapiens; OVCAR-8, ovarian cancer; one dose 10 μM; read-out: Growth Inhibition Percentage (GI %)
ACHN = assay: NCI-60 anticancer screening (SRB); assay type: cell-based; conditions: Homo sapiens, renal cancer, one dose 10 μM, read-out: Growth Inhibition Percentage (GI %)
CAKI-1 = assay: NCI-60 anticancer screening (SRB); assay type: cell-based; conditions: Homo sapiens; CAKI-1, renal cancer; one dose 10 μM; read-out: Growth Inhibition Percentage (GI %)
SN 12C = assay: NCI-60 anticancer screening (SRB); assay type: cell-based; conditions: Homo sapiens, SN12C; SN 12C, renal cancer; one dose 10 μM; read-out: Growth Inhibition Percentage (GI %)
UO-31 = assay: NCI-60 anticancer screening (SRB); assay type: cell-based; conditions: Homo sapiens; UO-31, renal cancer; one dose 10 μM; read-out: Growth Inhibition Percentage (GI %)
DU-145 = assay: NCI-60 anticancer screening (SRB); assay type: cell-based; conditions: Homo sapiens; DU-145, prostate cancer; one dose 10 μM; read-out: Growth Inhibition Percentage (GI %)
HS 578T = assay: NCI-60 anticancer screening (SRB); assay type: cell-based; conditions: Homo sapiens; HS 578T, breast cancer; one dose 10 μM; read-out: Growth Inhibition Percentage (GI %)
EGFR^T790M = EGFR^T790M (Homo sapiens, UniProt P00533, T790M); assay: biochemical
EGFR^L858R = EGFR^L858R (Homo sapiens, UniProt P00533, L858R); assay: biochemical
EGFR^WT = EGFR^WT (Homo sapiens, UniProt P00533); assay: EGFR kinase inhibitory assay (HTRF)
Chain of EGFR^WT (P00533 25-1210): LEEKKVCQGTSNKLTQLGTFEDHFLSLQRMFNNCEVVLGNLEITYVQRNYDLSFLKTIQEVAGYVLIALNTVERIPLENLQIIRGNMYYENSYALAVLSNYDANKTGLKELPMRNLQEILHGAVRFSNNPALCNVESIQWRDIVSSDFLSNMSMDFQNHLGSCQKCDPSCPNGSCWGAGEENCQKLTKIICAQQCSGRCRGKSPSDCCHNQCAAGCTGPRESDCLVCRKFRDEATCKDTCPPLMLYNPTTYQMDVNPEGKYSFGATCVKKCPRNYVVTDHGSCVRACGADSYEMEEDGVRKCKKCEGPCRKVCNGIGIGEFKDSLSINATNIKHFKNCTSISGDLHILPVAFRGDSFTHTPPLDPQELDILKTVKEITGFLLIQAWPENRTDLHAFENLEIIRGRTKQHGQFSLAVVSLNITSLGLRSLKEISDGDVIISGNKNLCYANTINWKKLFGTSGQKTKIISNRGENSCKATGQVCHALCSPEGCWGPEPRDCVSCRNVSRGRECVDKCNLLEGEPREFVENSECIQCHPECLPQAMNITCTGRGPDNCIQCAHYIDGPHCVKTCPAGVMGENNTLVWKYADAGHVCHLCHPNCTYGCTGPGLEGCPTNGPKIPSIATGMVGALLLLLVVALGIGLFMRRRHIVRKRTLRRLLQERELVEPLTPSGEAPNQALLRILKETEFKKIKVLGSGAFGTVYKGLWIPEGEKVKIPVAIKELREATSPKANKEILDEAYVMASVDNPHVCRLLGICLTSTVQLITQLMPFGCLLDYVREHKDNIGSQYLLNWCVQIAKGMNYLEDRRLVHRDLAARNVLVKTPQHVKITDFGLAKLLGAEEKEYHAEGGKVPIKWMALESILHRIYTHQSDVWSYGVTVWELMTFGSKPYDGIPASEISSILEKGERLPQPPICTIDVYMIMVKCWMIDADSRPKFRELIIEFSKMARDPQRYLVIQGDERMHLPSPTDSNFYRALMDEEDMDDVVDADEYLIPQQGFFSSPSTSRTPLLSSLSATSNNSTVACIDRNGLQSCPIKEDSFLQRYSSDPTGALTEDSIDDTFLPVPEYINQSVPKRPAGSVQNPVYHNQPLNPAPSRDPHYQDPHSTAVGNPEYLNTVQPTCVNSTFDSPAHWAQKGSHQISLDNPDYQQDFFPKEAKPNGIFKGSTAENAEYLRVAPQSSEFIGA

Chain of EGFR^L858R (P00533 25-1210 L858R): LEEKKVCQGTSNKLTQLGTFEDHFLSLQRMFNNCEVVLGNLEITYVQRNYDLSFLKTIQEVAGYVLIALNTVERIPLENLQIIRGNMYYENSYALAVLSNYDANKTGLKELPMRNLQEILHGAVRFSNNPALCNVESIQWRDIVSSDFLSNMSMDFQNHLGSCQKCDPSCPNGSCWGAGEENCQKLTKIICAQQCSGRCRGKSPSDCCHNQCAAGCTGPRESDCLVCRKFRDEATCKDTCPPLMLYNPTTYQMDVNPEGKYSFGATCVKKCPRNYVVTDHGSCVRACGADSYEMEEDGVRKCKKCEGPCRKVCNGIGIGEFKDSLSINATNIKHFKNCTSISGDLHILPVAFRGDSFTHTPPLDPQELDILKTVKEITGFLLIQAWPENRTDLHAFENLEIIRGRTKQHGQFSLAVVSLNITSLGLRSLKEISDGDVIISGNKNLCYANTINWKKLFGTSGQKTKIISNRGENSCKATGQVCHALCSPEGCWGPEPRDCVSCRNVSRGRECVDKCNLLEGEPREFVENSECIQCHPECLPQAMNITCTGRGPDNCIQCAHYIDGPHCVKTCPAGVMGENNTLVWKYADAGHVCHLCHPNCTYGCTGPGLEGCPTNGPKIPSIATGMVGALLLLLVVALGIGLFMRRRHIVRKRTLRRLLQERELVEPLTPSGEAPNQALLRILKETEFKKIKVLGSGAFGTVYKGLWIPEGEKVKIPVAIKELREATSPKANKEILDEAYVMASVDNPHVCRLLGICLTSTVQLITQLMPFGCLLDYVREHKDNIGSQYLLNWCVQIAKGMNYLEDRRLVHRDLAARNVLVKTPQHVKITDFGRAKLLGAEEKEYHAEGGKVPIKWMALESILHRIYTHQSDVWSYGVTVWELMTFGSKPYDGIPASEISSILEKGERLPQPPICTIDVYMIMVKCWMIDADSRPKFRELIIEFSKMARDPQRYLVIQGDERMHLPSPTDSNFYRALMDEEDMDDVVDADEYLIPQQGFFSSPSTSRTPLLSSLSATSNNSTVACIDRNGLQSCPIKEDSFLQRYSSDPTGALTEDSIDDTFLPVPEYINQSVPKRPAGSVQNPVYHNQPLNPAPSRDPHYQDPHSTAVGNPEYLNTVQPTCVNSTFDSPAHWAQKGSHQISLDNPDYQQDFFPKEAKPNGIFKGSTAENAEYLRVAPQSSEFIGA
Chain of EGFR^T790M (P00533 25-1210 T790M): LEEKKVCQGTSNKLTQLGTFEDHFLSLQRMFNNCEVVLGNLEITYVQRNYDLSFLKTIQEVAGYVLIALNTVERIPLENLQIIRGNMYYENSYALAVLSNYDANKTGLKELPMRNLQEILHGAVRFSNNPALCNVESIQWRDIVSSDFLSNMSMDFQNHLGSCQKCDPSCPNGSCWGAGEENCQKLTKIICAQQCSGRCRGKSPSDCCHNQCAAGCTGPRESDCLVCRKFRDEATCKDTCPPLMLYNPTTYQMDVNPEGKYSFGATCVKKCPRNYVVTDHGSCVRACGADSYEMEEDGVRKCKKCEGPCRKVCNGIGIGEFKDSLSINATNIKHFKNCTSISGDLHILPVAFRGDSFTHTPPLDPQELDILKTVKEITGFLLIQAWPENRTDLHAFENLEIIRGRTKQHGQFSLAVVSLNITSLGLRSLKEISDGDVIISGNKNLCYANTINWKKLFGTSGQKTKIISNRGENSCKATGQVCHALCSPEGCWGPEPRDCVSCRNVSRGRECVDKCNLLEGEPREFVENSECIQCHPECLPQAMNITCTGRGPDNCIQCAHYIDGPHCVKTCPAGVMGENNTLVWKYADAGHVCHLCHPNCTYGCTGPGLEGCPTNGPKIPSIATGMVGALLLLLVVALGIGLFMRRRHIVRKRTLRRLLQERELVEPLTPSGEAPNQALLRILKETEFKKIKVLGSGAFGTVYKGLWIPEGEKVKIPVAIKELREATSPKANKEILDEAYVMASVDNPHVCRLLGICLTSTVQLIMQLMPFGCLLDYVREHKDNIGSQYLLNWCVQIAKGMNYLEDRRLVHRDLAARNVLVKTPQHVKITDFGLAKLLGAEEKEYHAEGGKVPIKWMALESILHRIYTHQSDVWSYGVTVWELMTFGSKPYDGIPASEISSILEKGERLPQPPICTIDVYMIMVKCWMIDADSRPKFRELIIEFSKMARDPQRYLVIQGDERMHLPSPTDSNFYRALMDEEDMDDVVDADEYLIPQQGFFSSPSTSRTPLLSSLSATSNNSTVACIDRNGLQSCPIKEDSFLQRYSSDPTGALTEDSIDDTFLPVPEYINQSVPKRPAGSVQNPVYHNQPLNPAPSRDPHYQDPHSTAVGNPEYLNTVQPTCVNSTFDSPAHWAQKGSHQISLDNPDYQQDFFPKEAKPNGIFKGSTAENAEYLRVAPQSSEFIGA

Row | SMILES | inhibition at 10 µM (MOLT-4) [%] | inhibition at 10 µM (RPMI-8226) [%] | inhibition at 10 µM (A549/ATCC) [%] | inhibition at 10 µM (EKVX) [%] | inhibition at 10 µM (HOP-62) [%] | inhibition at 10 µM (HOP-92) [%] | inhibition at 10 µM (NCI-H460) [%] | inhibition at 10 µM (NCI-H522) [%] | inhibition at 10 µM (HCC-2998) [%] | inhibition at 10 µM (HT29) [%] | inhibition at 10 µM (SF-295) [%] | inhibition at 10 µM (SF-539) [%] | inhibition at 10 µM (SNB-19) [%] | inhibition at 10 µM (MALME-3M) [%] | inhibition at 10 µM (MDA-MB-435) [%] | inhibition at 10 µM (SK-MEL-28) [%] | inhibition at 10 µM (SK-MEL-5) [%] | inhibition at 10 µM (UACC-62) [%] | inhibition at 10 µM (OVCAR-3) [%] | inhibition at 10 µM (OVCAR-4) [%] | further results
1 | CCOC(=O)C1=C(N)N(c2ccc(C)cc2)C2=C(C(=O)CC(C)(C)C2)C1c1ccccc1Br (racemic) [6e, (±)-Ethyl 2-amino-4–(2-bromophenyl)-7,7-dimethyl-1–(4-methylphenyl)-5-oxo-1,4,5,6,7,8-hexahydroquinoline-3-carboxylate] | 71 | 64 | 19 | < 10 | < 10 | 28 | 46 | 32 | 11 | 37 | < 10 | < 10 | 13 | < 10 | 17 | < 10 | 23 | 28 | 15 | 17 | inhibition at 10 µM (OVCAR-8): < 10%; inhibition at 10 µM (ACHN): 14%; inhibition at 10 µM (CAKI-1): 30%; inhibition at 10 µM (SN 12C): 15%; inhibition at 10 µM (UO-31): 24%; inhibition at 10 µM (DU-145): < 10%; inhibition at 10 µM (HS 578T): < 10%; melting point: 236 to 238 °C; IC50 (EGFR^T790M): 480 ± 3 nM; IC50 (EGFR^L858R): 370 ± 4 nM; IC50 (EGFR^WT): 176 ± 70 nM
2 | CCOC(=O)C1=C(N)N(c2ccc(Cl)cc2)C2=C(C(=O)CC(C)(C)C2)C1c1ccccc1Br (racemic) [6f, (±)-Ethyl 2-amino-4–(2-bromophenyl)-1–(4-chlorophenyl)-7,7-dimethyl-5-oxo-1,4,5,6,7,8-hexahydroquinoline-3-carboxylate] | < 10 | < 10 | 31 | 25 | < 10 | 13 | 43 | 43 | < 10 | 44 | 18 | < 10 | 11 | 18 | < 10 | < 10 | 79 | 36 | 31 | 25 | inhibition at 10 µM (OVCAR-8): 14%; inhibition at 10 µM (ACHN): 20%; inhibition at 10 µM (CAKI-1): 32%; inhibition at 10 µM (SN 12C): 13%; inhibition at 10 µM (UO-31): 40%; inhibition at 10 µM (DU-145): < 10%; inhibition at 10 µM (HS 578T): < 10%; melting point: 210 to 212 °C; IC50 (EGFR^T790M): 590 ± 4 nM; IC50 (EGFR^L858R): 480 ± 3 nM; IC50 (EGFR^WT): 313 ± 120 nM
